Source: patent US20100167260A1, “Use of N-Piperidine Derivative Compositions for Protecting Biological Systems” (MEDESTEA RESEARCH & PRODUCTION SPA, priority 2006, published 2010)

Assays:
rabbit heart [1] = assay: Carbonyl proteins in rabbit hearts after 1 h reperfusion
Procedure: (§1) The hearts were quickly excised from anesthetized animals (55 mg/kg body weight sodium pentobarbital; ten rabbits for each experiment group were used) flushed with the respective experimental solutions and placed in either cold (4° C.) Celsior and Celsior plus 5 mM MP1001 or Celsior plus GSH 5 mM for 24 hours. Because Celsior standard solution contains 3 mM reduced glutathione (GSH), comparative experiments in term of “total antioxidant power” using equimolar antioxidant amount (e.g. adding 5 mM MP1001 or 5 mM GSH to Celsior) were performed.
(§2) At the end of cold preservation, the organs were then reperfused in a Langerdoff working heart model with oxygenated Krebs-Henseleit buffer (120 mM NaCl, 25 mM NaHCO3, 4.9 mM KCl, 1.2 mM KH2PO4, 2.5 mM CaCl2, 1.25 MgSO4 and 10 mM glucose). The buffers were bubbled regularly with a mixture of O2 (95%) and CO2 (5%); the CO2 helped maintain the buffer at a physiological pH (7.4). In the mean time, the apparatus had extensive water-jacketing connected to a water heater that maintained buffers and hearts at 37° C. The buffers was filtered through a Gelman GA-4, 0.8 μm metrical, membrane before the use. […]
(§3) Lipid peroxidation was determined by quantification of the release of malondialdeyde (MDA) accumulated in cells which was used as biomarker, essentially according to Buege Y. A. & Aust S. G., Method Enzymol. […]

rabbit heart [2] = assay: Histopathological analysis of rabbit hearts after 1 h reperfusion; details: hearts stored in Celsior plus 5 mM MP1001 as compared to GSH
Procedure: as §1
as §2, with “use. A saline-filled latex balloon connected through a pressure transducer to a polygraph recorder was inserted into the left ventricle through a left atriotomy and secured by a suture to the mitrial annulus.” for “use.”

rabbit heart [3] = assay: Rabbit heart cold preservation (24 h, 4° C.) and Langendorff reperfusion: developed pressure
Procedure: Male New Zealand rabbits (1.4-1.8 kg weight) were kept on a standard laboratory diet supplemented with “Nossan pellet” (both the animals and pellets are available from Nossan Company, Milan, Italy) and were housed for three weeks (relative humidity 50% ±10%, temperature 22° C.±1° C. and in a light/darkness cycle of 12 hours/12 hours, with first light at 7.30 a.m.) prior to the experiments; food and water were available ad libitum.
The hearts were quickly excised from anesthetized animals (55 mg/kg body weight sodium pentobarbital; ten rabbits for each experiment group were used) flushed with the respective experimental solutions and placed in either cold (4° C.) Celsior and Celsior plus 5 mM MP1001 or Celsior plus GSH 5 mM for 24 hours. Because Celsior standard solution contains 3 mM reduced glutathione (GSH), comparative experiments in term of “total antioxidant power” using equimolar antioxidant amount (e.g. adding 5 mM MP1001 or 5 mM GSH to Celsior) were performed. […]
After 24 hours of cold preservation and reperfusion for 1 hour, the developed pressure (as a measure of protection) of the hearts preserved in Celsior (standard/control) was a mean of 34±9.55 mmHg. […] We determined that this level of recovery was not sufficient and proceeded to add the cardioprotective antioxidant MP1001 (5 mM) or GSH (5 mM, to have a final, equimolar 8 mM “antioxidant concentration”).

rabbit heart [4] = assay: LDH levels in the perfusate of rabbit hearts after 1 h reperfusion
Procedure: as §1, §2, §3

rabbit heart [5] = assay: Lipid peroxidation (MDA release) in rabbit hearts after 1 h reperfusion
Procedure: as §1, §2, §3

[6] = rabbit hearts, 24 h cold preservation in Celsior (additive 5 mM where given)

With CC1(C)CC(OC(=O)CCCCCCCCC(=O)OC2CC(C)(C)N(O)C(C)(C)C2)CC(C)(C)N1O [MP1001, bis(1-hydroxy-2,2,6,6-tetramethyl-4-piperidinyl)decandioate] the carbonyl proteins (rabbit heart [1]; [6]) was 48±11, the “histopathological analysis (myocyte injury, edema, endotelial damage)” value (rabbit heart [2]) was “Hearts sustained less injury by all criteria examined” and the developed pressure (rabbit heart [3]; rabbit hearts, 24 hours cold (4° C.) preservation in Celsior (additive 5 mM where given), reperfusion for 1 hour) was 88±9.02 mmHg. The “LDH levels in the perfusate” value (rabbit heart [4]; [6]) was 0.3±0.1 and the “lipid peroxidation (malondialdeyde, MDA)” value (rabbit heart [5]; [6]) was 0.31±0.10.

N[C@@H](CCC(=O)N[C@@H](CS)C(=O)NCC(=O)O)C(=O)O [GSH, reduced glutathione, reference compound] was tested, and the “effect on carbonyl proteins vs standard Celsior” value (rabbit heart [1]; 5 mM supplement in Celsior) was “not modified”, the “protection (developed pressure) compared to standard Celsior solution” value (rabbit heart [3]; 5 mM added to Celsior (8 mM GSH final), 24 hours cold preservation, 1 h reperfusion) was “did not provide any additional protection” and the “effect on LDH vs standard Celsior” value (rabbit heart [4]; 5 mM supplement in Celsior) was “not modified”. For the same compound, the “effect on lipid peroxidation vs standard Celsior” value (rabbit heart [5]; additional 5 mM in Celsior) was “did not significantly modify this parameter”.
